Measured values taken from patent US8895587B2, “Insecticidal compounds based on arylthioacetamide derivatives” (Syngenta Participations AG, priority 2011, dated 2014).

How the values were obtained:
Assay type in all cases: in vivo
Spodoptera littoralis = Spodoptera littoralis (Egyptian cotton leafworm) leaf disc test; settings: foliar, 72 h, application rate 200 ppm, cotton leaf discs, L1 larvae, mortality, feeding behavior, growth regulation 3 DAT
Excerpt: Spodoptera littoralis (Egyptian Cotton Leafworm): Cotton leaf discs were placed on agar in a 24-well microtiter plate and sprayed with test solutions at an application rate of 200 ppm. After drying, the leaf discs were infested with 5 L1 larvae. The samples were checked for mortality, feeding behavior, and growth regulation 3 days after treatment (DAT).

Diabrotica balteata = Diabrotica balteata (corn root worm) larval test on artificial diet; settings: 120 h, application rate 200 ppm (concentration in well 18 ppm), L2 larvae on artificial diet, 5 days
Procedure: (§1) Diabrotica balteata (Corn Root Worm): A 24-well microtiter plate (MTP) with artificial diet was treated with test solutions at an application rate of 200 ppm (concentration in well 18 ppm) by pipetting. After drying, the MTP's were infested with L2 larvae (6-10 per well). After an incubation period of 5 days, samples were checked for larval mortality and growth regulation.

Heliothis virescens = Heliothis virescens (tobacco budworm) egg/larval test on artificial diet; settings: 96 h, application rate 200 ppm (concentration in well 18 ppm), eggs on artificial diet, 4 days
Procedure: Eggs (0-24 h old) were placed in 24-well microtiter plate on artificial diet and treated with test solutions at an application rate of 200 ppm (concentration in well 18 ppm) by pipetting. After an incubation period of 4 days, samples were checked for egg mortality, larval mortality, and growth regulation.

Tetranychus urticae = Tetranychus urticae (two-spotted spider mite) leaf disc test; settings: foliar, 192 h, application rate 200 ppm, bean leaf discs, 8 days
Excerpt: Bean leaf discs on agar in 24-well microtiter plates were sprayed with test solutions at an application rate of 200 ppm. After drying, the leaf discs are infested with mite populations of mixed ages. 8 days later, discs are checked for egg mortality, larval mortality, and adult mortality.

Myzus persicae = Myzus persicae (green peach aphid), systemic test; settings: 144 h, application rate 12.5 ppm, roots of pea seedlings in test solution, 6 days
Excerpt: Myzus persicae (Green peach aphid), systemic test: Roots of pea seedlings, infested with an aphid population of mixed ages, are placed directly in the test solutions at an application rate of 12.5 ppm. 6 days after introduction, samples are checked for mortality and special effects on the plant. The following compounds gave at least 80% control of Myzus persicae: […]

Thrips tabaci = Thrips tabaci (onion thrips) leaf disc test; settings: foliar, 168 h, application rate 200 ppm, sunflower leaf discs, 7 days
Procedure: Sunflower leaf discs were placed on agar in a 24-well microtiter plate and sprayed with test solutions at an application rate of 200 ppm. After drying, the leaf discs were infested with a thrips population of mixed ages. After an incubation period of 7 days, samples were checked for mortality.

Plutella xylostella = Plutella xylostella (diamond back moth) larval test on artificial diet; settings: 144 h, application rate 200 ppm (concentration in well 18 ppm), L2 larvae on artificial diet, 6 days
Procedure: as §1, with “24-well” for “Diabrotica balteata (Corn Root Worm): A 24-well”, “(7-12” for “(6-10”, “6” for “5”

O=C(CSc1ccc(C2=NCC(c3cc(Cl)cc(Cl)c3)(C(F)(F)F)C2)cc1Cl)NCC(F)(F)F (stereo not shown) [Compound B1, 2-{2-Chloro-4-[4-(3,5-dichloro-phenyl)-4-trifluoromethyl-4,5-dihydro-3H-pyrrol-2-yl]-phenylsulfanyl}-N-(2,2,2-trifluoro-ethyl)-acetamide]
≥ 80%: pest or weed control at 200 ppm (Spodoptera littoralis) | pest or weed control at 200 ppm (Diabrotica balteata) | pest or weed control at 200 ppm (Heliothis virescens) | pest or weed control at 200 ppm (Tetranychus urticae) | pest or weed control at 12.5 ppm (Myzus persicae) | pest or weed control at 200 ppm (Thrips tabaci) | pest or weed control at 200 ppm (Plutella xylostella)

O=C(CSc1ccc(C2=NOC(c3cc(Cl)cc(Cl)c3)(C(F)(F)F)C2)cc1Cl)NCC(F)(F)F (stereo not shown) [Compound A5, 2-{2-Chloro-4-[5-(3,5-Dichloro-phenyl)-5-trifluoromethyl-4,5-dihydro-isoxazol-3-yl]-phenylsulfanyl}-N-(2,2,2-trifluoro-ethyl)-acetamide]
≥ 80%: pest or weed control at 200 ppm (Spodoptera littoralis) | pest or weed control at 200 ppm (Diabrotica balteata) | pest or weed control at 200 ppm (Heliothis virescens) | pest or weed control at 200 ppm (Tetranychus urticae) | pest or weed control at 12.5 ppm (Myzus persicae) | pest or weed control at 200 ppm (Thrips tabaci) | pest or weed control at 200 ppm (Plutella xylostella)

N#CC1(NC(=O)CS(=O)(=O)c2ccc(C3=NOC(c4cc(Cl)cc(Cl)c4)(C(F)(F)F)C3)cc2Cl)CC1 (stereo not shown) [Compound A61, 2-[2-chloro-4-[5-(3,5-dichlorophenyl)-5-(trifluoromethyl)-4H-isoxazol-3-yl]phenyl]sulfonyl-N-(1-cyanocyclopropyl)acetamide]
≥ 80%: pest or weed control at 200 ppm (Spodoptera littoralis) | pest or weed control at 200 ppm (Diabrotica balteata) | pest or weed control at 200 ppm (Heliothis virescens) | pest or weed control at 200 ppm (Tetranychus urticae) | pest or weed control at 200 ppm (Thrips tabaci) | pest or weed control at 200 ppm (Plutella xylostella)

Cc1cc(C2=NOC(c3cc(Cl)cc(Cl)c3)(C(F)(F)F)C2)cnc1SCC(=O)NC1CC1 (stereo not shown) [Compound F1, N-cyclopropyl-2-[[5-[5-(3,5-dichlorophenyl)-5-(trifluoromethyl)-4H-isoxazol-3-yl]-3-methyl-2-pyridyl]sulfanyl]acetamide]
≥ 80%: pest or weed control at 200 ppm (Spodoptera littoralis) | pest or weed control at 200 ppm (Diabrotica balteata) | pest or weed control at 200 ppm (Heliothis virescens) | pest or weed control at 200 ppm (Tetranychus urticae) | pest or weed control at 200 ppm (Plutella xylostella)

O=C(CS(=O)(=O)c1ccc(C2=NO[C@@](c3cc(Cl)c(Cl)c(Cl)c3)(C(F)(F)F)C2)cc1Cl)NC1CC1 [Compound D6, 2-[2-chloro-4-[(5S)-5-(3,4,5-trichlorophenyl)-5-(trifluoromethyl)-4H-isoxazol-3-yl]phenyl]sulfonyl-N-cyclopropyl-acetamide]
≥ 80%: pest or weed control at 12.5 ppm (Myzus persicae)

O=C(C[S+]([O-])c1ccc(C2=NOC(c3cc(Cl)cc(Cl)c3)(C(F)(F)F)C2)cc1Br)NCC(F)(F)F (stereo not shown) [Compound A52, 2-{2-Bromo-4-[5-(3,5-dichloro-phenyl)-5-trifluoromethyl-4,5-dihydro-isoxazol-3-yl]-benzenesulfinyl}-N-(2,2,2-trifluoro-ethyl)-acetamide]
≥ 80%: pest or weed control at 200 ppm (Spodoptera littoralis) | pest or weed control at 200 ppm (Diabrotica balteata) | pest or weed control at 200 ppm (Heliothis virescens) | pest or weed control at 200 ppm (Tetranychus urticae) | pest or weed control at 12.5 ppm (Myzus persicae) | pest or weed control at 200 ppm (Thrips tabaci) | pest or weed control at 200 ppm (Plutella xylostella)

O=C(CS(=O)(=O)c1ccc(C2=NOC(c3cc(Cl)cc(Cl)c3)(C(F)(F)F)C2)cc1Br)NCC(F)(F)F (stereo not shown) [Compound A53, 2-{2-Bromo-4-[5-(3,5-dichloro-phenyl)-5-trifluoromethyl-4,5-dihydro-isoxazol-3-yl]-benzenesulfonyl}-N-(2,2,2-trifluoro-ethyl)-acetamide]
≥ 80%: pest or weed control at 200 ppm (Spodoptera littoralis) | pest or weed control at 200 ppm (Diabrotica balteata) | pest or weed control at 200 ppm (Heliothis virescens) | pest or weed control at 200 ppm (Tetranychus urticae) | pest or weed control at 12.5 ppm (Myzus persicae) | pest or weed control at 200 ppm (Thrips tabaci) | pest or weed control at 200 ppm (Plutella xylostella)

O=C(CSc1ccc(C2=NO[C@@](c3cc(Cl)cc(Cl)c3)(C(F)(F)F)C2)cc1F)NCC(F)(F)F [Compound C63, 2-[4-[(5S)-5-(3,5-dichlorophenyl)-5-(trifluoromethyl)-4H-isoxazol-3-yl]-2-fluoro-phenyl]sulfanyl-N-(2,2,2-trifluoroethyl)acetamide]
≥ 80%: pest or weed control at 200 ppm (Spodoptera littoralis) | pest or weed control at 200 ppm (Diabrotica balteata) | pest or weed control at 200 ppm (Heliothis virescens) | pest or weed control at 200 ppm (Tetranychus urticae) | pest or weed control at 12.5 ppm (Myzus persicae) | pest or weed control at 200 ppm (Thrips tabaci) | pest or weed control at 200 ppm (Plutella xylostella)

O=C(C[S+]([O-])c1ccc(C2=NO[C@@](c3cc(Cl)cc(Cl)c3)(C(F)(F)F)C2)cc1F)NCC(F)(F)F (stereo partly drawn) [Compound C64, 2-[4-[(5S)-5-(3,5-dichlorophenyl)-5-(trifluoromethyl)-4H-isoxazol-3-yl]-2-fluoro-phenyl]sulfinyl-N-(2,2,2-trifluoroethyl)acetamide]
≥ 80%: pest or weed control at 200 ppm (Spodoptera littoralis) | pest or weed control at 200 ppm (Diabrotica balteata) | pest or weed control at 200 ppm (Heliothis virescens) | pest or weed control at 200 ppm (Tetranychus urticae) | pest or weed control at 12.5 ppm (Myzus persicae) | pest or weed control at 200 ppm (Thrips tabaci) | pest or weed control at 200 ppm (Plutella xylostella)

N#CC1(NC(=O)C[S+]([O-])c2ccc(C3=NOC(c4cc(Cl)cc(Cl)c4)(C(F)(F)F)C3)cc2Cl)CC1 (stereo not shown) [Compound A56, 2-[2-chloro-4-[5-(3,5-dichlorophenyl)-5-(trifluoromethyl)-4H-isoxazol-3-yl]phenyl]sulfinyl-N-(1-cyanocyclopropyl)acetamide]
≥ 80%: pest or weed control at 200 ppm (Spodoptera littoralis) | pest or weed control at 200 ppm (Diabrotica balteata) | pest or weed control at 200 ppm (Heliothis virescens) | pest or weed control at 200 ppm (Tetranychus urticae) | pest or weed control at 12.5 ppm (Myzus persicae) | pest or weed control at 200 ppm (Thrips tabaci) | pest or weed control at 200 ppm (Plutella xylostella)

O=C(C[S+]([O-])c1ccc(C2=NCC(c3cc(Cl)cc(Cl)c3)(C(F)(F)F)C2)cc1Cl)NCC(F)(F)F (stereo not shown) [Compound B2, 2-{2-Chloro-4-[4-(3,5-dichloro-phenyl)-4-trifluoromethyl-4,5-dihydro-3H-pyrrol-2-yl]-benzenesulfinyl}-N-(2,2,2-trifluoro-ethyl)-acetamide]
≥ 80%: pest or weed control at 200 ppm (Spodoptera littoralis) | pest or weed control at 200 ppm (Diabrotica balteata) | pest or weed control at 200 ppm (Heliothis virescens) | pest or weed control at 200 ppm (Tetranychus urticae) | pest or weed control at 12.5 ppm (Myzus persicae) | pest or weed control at 200 ppm (Thrips tabaci) | pest or weed control at 200 ppm (Plutella xylostella)

O=C(C[S+]([O-])c1ccc(C2=NO[C@@](c3cc(Cl)c(Cl)c(Cl)c3)(C(F)(F)F)C2)cc1Cl)NC1CC1 (stereo partly drawn) [Compound D5, 2-[2-chloro-4-[(5S)-5-(3,4,5-trichlorophenyl)-5-(trifluoromethyl)-4H-isoxazol-3-yl]phenyl]sulfinyl-N-cyclopropyl-acetamide]
≥ 80%: pest or weed control at 12.5 ppm (Myzus persicae)

Cc1cc(C2=NOC(c3cc(Cl)cc(Cl)c3)(C(F)(F)F)C2)ncc1SCC(=O)NC1CC1 (stereo not shown) [Compound F2, N-cyclopropyl-2-[[6-[5-(3,5-dichlorophenyl)-5-(trifluoromethyl)-4H-isoxazol-3-yl]-4-methyl-3-pyridyl]sulfanyl]acetamide]
≥ 80%: pest or weed control at 200 ppm (Spodoptera littoralis) | pest or weed control at 200 ppm (Diabrotica balteata) | pest or weed control at 200 ppm (Heliothis virescens) | pest or weed control at 12.5 ppm (Myzus persicae) | pest or weed control at 200 ppm (Plutella xylostella)

Cc1cc(C2=NO[C@@](c3cc(Cl)cc(Cl)c3)(C(F)(F)F)C2)ccc1SCC(=O)NCC(F)(F)F [Compound C4, 2-{4-[(S)-5-(3,5-Dichloro-phenyl)-5-trifluoromethyl-4,5-dihydro-isoxazol-3-yl]-2-methyl-phenylsulfanyl}-N-(2,2,2-trifluoro-ethyl)-acetamide]
≥ 80%: pest or weed control at 200 ppm (Spodoptera littoralis) | pest or weed control at 200 ppm (Diabrotica balteata)
